One experiment addresses T1, GluR6 (Rattus norvegicus, UniProt P42260).
T1 construct: expressed in transfected cells; HEK 293 (patch clamp)
As to the kind of experiment: Patch-clamp recordings from transfected HEK 293 cells, Example 1. It counts as cell-based. Conditions: Example 1, FIG. 5. How it is done:
Non-specific binding was defined in the presence of 1 mM glutamate. The effect of these analogs on electrophysiology was assessed as follows. HEK 293 cells were transfected with receptor cDNAs in combination with eGFP cDNA. Patch-clamp recordings from transfected cells were made 24-72 hours later using a fast application system described previously (Swanson et al., NEURON 1997; 19:913-26). (See FIG. 3.)
The effect of these analogs on electrophysiology also was assessed as described above. […] The results further indicate that the C8 and C9 substituents are necessary for binding to all AMPA and KAR subunits except for GluR5 subunits. The C9 polar group must be present and in the correct spatial orientation for high-affinity GluR5 subunit binding. Inter-domain contacts mediated by residue 721S are critical determinants of binding affinity. The epimer analog 9-deoxy-neoDH mimics the binding affinity of the di-deoxy analog MSVIII-19, but acts as an agonist rather than an antagonist.

In another experiment the target is T2, GluR5 (Rattus norvegicus, UniProt P22756).
T2 construct: expressed in transfected cells; HEK 293 (patch clamp)
T2 sequence (P22756 with tags, fused parts or gaps isoform P22756-2): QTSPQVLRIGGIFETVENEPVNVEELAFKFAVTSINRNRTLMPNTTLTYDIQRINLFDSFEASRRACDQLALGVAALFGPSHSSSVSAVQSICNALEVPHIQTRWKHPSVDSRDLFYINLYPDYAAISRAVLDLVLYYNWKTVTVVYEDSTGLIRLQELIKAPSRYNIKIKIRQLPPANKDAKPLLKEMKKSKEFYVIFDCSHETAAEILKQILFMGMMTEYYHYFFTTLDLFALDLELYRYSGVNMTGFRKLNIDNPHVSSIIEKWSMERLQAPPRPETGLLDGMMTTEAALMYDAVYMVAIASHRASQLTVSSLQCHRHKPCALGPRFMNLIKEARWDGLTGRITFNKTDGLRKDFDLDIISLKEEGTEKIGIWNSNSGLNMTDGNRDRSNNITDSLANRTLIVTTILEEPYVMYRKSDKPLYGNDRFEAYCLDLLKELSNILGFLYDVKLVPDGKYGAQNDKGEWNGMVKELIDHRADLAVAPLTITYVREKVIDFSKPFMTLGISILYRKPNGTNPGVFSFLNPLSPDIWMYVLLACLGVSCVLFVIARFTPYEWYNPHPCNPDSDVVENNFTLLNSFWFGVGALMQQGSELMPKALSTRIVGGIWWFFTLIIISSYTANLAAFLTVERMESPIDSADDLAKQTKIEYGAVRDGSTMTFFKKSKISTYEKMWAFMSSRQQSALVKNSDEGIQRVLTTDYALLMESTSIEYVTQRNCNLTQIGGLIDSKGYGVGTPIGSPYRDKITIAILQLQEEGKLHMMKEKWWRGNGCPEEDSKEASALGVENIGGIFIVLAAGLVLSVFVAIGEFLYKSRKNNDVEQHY
To be noted: Tables 1-2; comparison values of neoDH and MSVIII-19 (Sanders et al., 2005); read-out: GluR5 binding affinity (displacement of [3H]kainate); cited from earlier work.

Experiment [1] has as its target T3, KA2 (Rattus norvegicus, UniProt Q63273).
T3 construct: expressed in transfected cells; host or cells: HEK-293-T/17
T3 sequence (Q63273 15-979): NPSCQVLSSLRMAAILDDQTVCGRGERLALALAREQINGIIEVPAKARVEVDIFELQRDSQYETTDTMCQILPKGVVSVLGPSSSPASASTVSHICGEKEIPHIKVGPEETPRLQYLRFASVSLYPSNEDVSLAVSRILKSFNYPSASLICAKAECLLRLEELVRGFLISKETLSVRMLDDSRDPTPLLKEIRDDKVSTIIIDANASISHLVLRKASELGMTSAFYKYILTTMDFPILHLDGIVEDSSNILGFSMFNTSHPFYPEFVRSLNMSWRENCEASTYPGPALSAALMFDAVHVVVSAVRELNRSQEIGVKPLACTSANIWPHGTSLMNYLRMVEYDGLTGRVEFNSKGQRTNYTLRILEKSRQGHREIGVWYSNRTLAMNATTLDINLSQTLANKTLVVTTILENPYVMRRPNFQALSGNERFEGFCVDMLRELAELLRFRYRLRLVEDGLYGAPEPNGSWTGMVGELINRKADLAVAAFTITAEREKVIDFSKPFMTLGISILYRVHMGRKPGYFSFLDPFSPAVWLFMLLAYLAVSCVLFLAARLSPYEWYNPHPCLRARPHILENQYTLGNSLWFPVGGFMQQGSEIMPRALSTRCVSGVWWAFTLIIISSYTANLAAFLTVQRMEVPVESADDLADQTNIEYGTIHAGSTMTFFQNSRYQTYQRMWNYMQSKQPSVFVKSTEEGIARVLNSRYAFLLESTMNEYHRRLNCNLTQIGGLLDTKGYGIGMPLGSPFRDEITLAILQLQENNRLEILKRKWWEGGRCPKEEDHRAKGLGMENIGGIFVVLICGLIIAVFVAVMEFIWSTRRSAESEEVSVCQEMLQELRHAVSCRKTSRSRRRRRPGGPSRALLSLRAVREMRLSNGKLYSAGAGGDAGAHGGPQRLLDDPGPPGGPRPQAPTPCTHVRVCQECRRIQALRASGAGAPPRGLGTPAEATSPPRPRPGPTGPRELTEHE
To be noted: Tables 1-2; comparison values of neoDH and MSVIII-19 (Sanders et al., 2005); cited from earlier work.

The next experiment addresses T4, GluR1 (Rattus norvegicus, UniProt P19490).
T4 construct: expressed in transfected cells; host or cells: COS-7 or HEK-T/17
Conditions: Table 1; comparison value of MSVIII-19 (Sanders et al., 2005); read-out: GluR1 binding affinity (displacement of [3H]AMPA); cited from earlier work.

A further experiment addresses T5, GluR2 (Rattus norvegicus, UniProt P19491).
T5 construct: expressed in transfected cells; host or cells: COS-7 or HEK-T/17
Conditions: Table 1; comparison value of MSVIII-19 (Sanders et al., 2005); read-out: GluR2 binding affinity (displacement of [3H]AMPA); cited from earlier work.

The target of experiment [2] is T6, GluR5-2a (Rattus norvegicus, UniProt P22756, DEL402-416).
T6 construct: expressed in transfected cells; host or cells: HEK-293-T/17
T6 sequence (P22756 with tags, fused parts or gaps isoform P22756-2 limits assumed, stated change not applied): as the sequence (P22756 with tags, fused parts or gaps isoform P22756-2) above
Conditions: Sanders et al., 2005; cited from earlier work.

The next experiment addresses T7, GluR6a (Rattus norvegicus, UniProt P42260).
T7 construct: expressed in transfected cells; host or cells: HEK-293-T/17
To be noted: Sanders et al., 2005; cited from earlier work.

Experiment [3] addresses T3, KA2. To be noted: Sanders et al., 2005; cited from earlier work.
A further experiment addresses T8, GluR1(i) (Rattus norvegicus, UniProt P19490).
T8 construct: expressed in transfected cells; host or cells: HEK-293-T/17
Conditions: Sanders et al., 2005; cited from earlier work.

The target of another experiment is T9, GluR2(i) (Rattus norvegicus, UniProt P19491).
T9 construct: expressed in transfected cells; host or cells: HEK-293-T/17
T9 sequence (P19491 22-883 isoform P19491-2 limits assumed): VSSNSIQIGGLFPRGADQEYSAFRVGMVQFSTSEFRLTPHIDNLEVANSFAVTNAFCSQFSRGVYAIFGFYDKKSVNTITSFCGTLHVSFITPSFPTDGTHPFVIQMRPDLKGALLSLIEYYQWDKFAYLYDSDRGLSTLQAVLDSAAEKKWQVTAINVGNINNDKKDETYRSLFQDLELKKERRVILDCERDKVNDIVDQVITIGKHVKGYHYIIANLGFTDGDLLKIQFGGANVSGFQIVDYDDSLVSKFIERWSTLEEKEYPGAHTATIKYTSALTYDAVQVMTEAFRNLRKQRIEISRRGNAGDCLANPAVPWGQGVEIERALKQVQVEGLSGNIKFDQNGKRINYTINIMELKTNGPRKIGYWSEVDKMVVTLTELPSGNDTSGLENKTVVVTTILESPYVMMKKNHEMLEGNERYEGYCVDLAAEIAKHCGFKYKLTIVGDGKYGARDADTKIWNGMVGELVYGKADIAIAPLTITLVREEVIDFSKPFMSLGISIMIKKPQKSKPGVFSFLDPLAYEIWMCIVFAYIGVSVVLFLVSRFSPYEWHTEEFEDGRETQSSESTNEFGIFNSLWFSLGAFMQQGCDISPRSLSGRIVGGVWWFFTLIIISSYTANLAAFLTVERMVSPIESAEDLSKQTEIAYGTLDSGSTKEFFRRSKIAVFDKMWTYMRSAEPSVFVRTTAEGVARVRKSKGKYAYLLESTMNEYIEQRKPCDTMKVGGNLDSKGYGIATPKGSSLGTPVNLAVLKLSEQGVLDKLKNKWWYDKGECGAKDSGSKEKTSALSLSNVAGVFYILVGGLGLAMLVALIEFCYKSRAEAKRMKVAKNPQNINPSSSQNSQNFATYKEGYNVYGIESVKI
Conditions: Sanders et al., 2005; cited from earlier work.

For experiment [4], the target named is T6, GluR5-2a. Conditions: Sanders et al., 2005; read-out: IC50 for inhibition of glutamate-evoked currents, GluR5-2a receptors; cited from earlier work.

Some results are limits rather than exact numbers.

T5 sequence (P19491 22-883 isoform P19491-2 limits assumed): as above
T7 sequence (P42260 32-908): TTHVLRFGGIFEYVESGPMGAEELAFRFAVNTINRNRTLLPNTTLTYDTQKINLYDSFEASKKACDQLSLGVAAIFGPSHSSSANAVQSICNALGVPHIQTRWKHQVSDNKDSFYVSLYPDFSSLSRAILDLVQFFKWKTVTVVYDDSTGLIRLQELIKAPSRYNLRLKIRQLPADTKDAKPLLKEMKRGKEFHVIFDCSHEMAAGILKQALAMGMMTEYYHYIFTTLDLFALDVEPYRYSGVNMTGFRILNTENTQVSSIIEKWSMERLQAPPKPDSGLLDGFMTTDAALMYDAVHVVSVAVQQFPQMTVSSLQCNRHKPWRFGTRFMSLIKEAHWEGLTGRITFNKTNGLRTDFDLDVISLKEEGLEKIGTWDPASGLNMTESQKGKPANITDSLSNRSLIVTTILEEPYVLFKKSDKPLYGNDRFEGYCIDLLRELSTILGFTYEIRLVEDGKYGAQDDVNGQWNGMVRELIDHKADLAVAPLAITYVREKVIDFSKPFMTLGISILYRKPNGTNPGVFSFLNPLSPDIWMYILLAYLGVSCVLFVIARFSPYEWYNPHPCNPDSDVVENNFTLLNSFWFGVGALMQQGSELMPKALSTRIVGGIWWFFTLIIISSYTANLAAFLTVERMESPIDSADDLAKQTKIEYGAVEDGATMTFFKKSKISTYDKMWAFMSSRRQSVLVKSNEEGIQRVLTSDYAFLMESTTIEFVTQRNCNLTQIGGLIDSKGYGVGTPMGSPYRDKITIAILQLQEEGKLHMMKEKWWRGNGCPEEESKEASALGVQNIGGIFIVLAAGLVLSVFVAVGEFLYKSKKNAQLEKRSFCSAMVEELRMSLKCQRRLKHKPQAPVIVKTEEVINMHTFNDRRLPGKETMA
T1 sequence (P42260 32-908): as above
T4 sequence (P19490 19-907 isoform P19490-2 limits assumed): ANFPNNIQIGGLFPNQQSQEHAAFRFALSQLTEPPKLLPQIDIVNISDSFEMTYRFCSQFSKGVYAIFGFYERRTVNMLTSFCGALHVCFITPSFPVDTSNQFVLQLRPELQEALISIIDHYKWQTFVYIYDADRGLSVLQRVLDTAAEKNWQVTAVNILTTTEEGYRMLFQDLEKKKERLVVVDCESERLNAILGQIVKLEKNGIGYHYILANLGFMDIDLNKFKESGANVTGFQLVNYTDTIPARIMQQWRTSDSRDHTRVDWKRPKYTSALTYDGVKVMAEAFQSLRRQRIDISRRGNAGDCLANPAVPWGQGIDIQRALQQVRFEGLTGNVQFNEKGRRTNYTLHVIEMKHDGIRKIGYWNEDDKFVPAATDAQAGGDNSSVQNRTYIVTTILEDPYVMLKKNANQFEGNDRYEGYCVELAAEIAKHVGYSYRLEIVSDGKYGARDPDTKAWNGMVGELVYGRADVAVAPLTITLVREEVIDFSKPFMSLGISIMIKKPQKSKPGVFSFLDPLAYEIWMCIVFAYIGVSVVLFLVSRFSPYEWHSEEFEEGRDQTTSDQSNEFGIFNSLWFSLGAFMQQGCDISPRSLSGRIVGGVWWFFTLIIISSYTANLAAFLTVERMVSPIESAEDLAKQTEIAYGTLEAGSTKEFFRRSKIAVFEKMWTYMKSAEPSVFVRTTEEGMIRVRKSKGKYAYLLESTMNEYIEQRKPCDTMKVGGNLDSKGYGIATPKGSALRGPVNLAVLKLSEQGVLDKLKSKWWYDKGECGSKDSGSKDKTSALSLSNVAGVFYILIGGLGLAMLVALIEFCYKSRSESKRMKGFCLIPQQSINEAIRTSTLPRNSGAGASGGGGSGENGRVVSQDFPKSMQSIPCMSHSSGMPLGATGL
T8 sequence (P19490 19-907 isoform P19490-2 limits assumed): as above

`N[C@@H](C[C@@]1(C(=O)O)CC2OCC(O)C(O)C2O1)C(=O)O` (single isomer, unassigned) [4-epi-neoDH, 4-epi-neodysiherbaine]: the “agonist or antagonist at GluR6 (electrophysiology)” value on GluR6 is “GluR5/GluR6 antagonist”.
Take `N[C@@H](C[C@]1(C(=O)O)C[C@H]2OCCC[C@H]2O1)C(=O)O` [MSVIII-19, 8,9-dideoxy-neoDH]: the Ki at GluR5 is 0.128 µM; on GluR1, > 100 µM; on GluR2, > 100 µM; at GluR5-2a [2], 0.128 µM; at GluR6a it was > 100 µM; at GluR1(i) it was > 100 µM. In addition, at GluR2(i), the Ki was > 100 µM. In addition, the “KA2 binding affinity (displacement of [3H]kainate)” value on KA2 [1] is >100 µM. Moreover, the “Ki KA2” value on KA2 [3] was >100 µM. For the same compound, the IC50 at GluR5-2a [4] is 0.023 µM.

Values taken from patent US7973075B2, “Kainate receptor-selective epimeric analogs of dysiherbaine” (priority 2007, dated 2011).
